Patent US9884832B2 (priority 2011, dated 2018)

These molecules were tested against AM2 S31N (serine→asparagine mutation at residue 31 in the M2 protein) (Influenza A virus, UniProt P0DOF5, S31N). Details: not given.
Assay type: cell-based, influenza virus A/Udorn/72

Structure (SMILES) | S31N OOcyte Inhibition at 100 uM (%)
C[Si](C)(C)c1ccc(CNC23CC4CC(CC(O)(C4)C2)C3)cc1 [Example 193a, (1s,3r,5R,7S)-3-((4-(trimethylsilyl)benzyl)amino)adamantan-1-ol] | A (key: (A)=31-95%; (B)=0-30%)
Fc1ccc(-c2cc(CNC34CC5CC(CC(C5)C3)C4)no2)cc1 [Example 118a, N-((5-(4-fluorophenyl)isoxazol-3-yl)methyl)adamantan-1-amine] | A (key: (A)=31-95%; (B)=0-30%)
c1c[nH]c(CNC23CC4CC(CC(C4)C2)C3)c1 [Example 72a, Adamantan-1-yl-(1H-pyrrol-2-ylmethyl)-amine] | B (key: (A)=31-95%; (B)=0-30%)
c1ccc(-c2nc(CNC34CC5CC(CC(C5)C3)C4)no2)cc1 [Example 131a, N-((5-phenyl-1,2,4-oxadiazol-3-yl)methyl)adamantan-1-amine] | A (key: (A)=31-95%; (B)=0-30%)
CC(C)c1csc(CNC23CC4CC(CC(C4)C2)C3)n1 [Example 84a, N-((4-isopropylthiazol-2-yl)methyl)adamantan-1-amine] | B (key: (A)=31-95%; (B)=0-30%)
CSc1ccc(CNC23CC4CC(CC(C4)C2)C3)s1 [Example 90a] | A (key: (A)=31-95%; (B)=0-30%)
Oc1ccc(CNC23CC4CC(CC(O)(C4)C2)C3)c(O)c1 [Example 196a, 4-[(3-Hydroxy-adamantan-1-ylamino)-methyl]-benzene-1,3-diol] | A (key: (A)=31-95%; (B)=0-30%)
Clc1ccc(-c2cc(CNC34CC5CC(CC(C5)C3)C4)no2)cc1 [Example 119a, N-((5-(4-chlorophenyl)isoxazol-3-yl)methyl)adamantan-1-amine] | A (key: (A)=31-95%; (B)=0-30%)
FC(F)(F)c1ccc(-c2nc(CNC34CC5CC(CC(C5)C3)C4)no2)cc1 [Example 129a, N-((5-(4-(trifluoromethyl)phenyl)-1,2,4-oxadiazol-3-yl)methyl)adamantan-1-amine] | A (key: (A)=31-95%; (B)=0-30%)
c1cn(-c2ccc(CNC34CC5CC(CC(C5)C3)C4)cc2)cn1 [Example 36a, N-(4-(1H-imidazol-1-yl)benzyl)adamantan-1-amine] | 26.9%
FC(F)(F)c1cccc(-c2nc(CNC34CC5CC(CC(C5)C3)C4)no2)c1 [Example 125a, N-((5-(3-(trifluoromethyl)phenyl)-1,2,4-oxadiazol-3-yl)methyl)adamantan-1-amine] | A (key: (A)=31-95%; (B)=0-30%)
CC(C)c1nc(CNC23CC4CC(CC(C4)C2)C3)no1 [Example 102a, N-((5-isopropyl-1,2,4-oxadiazol-3-yl)methyl)adamantan-1-amine] | A (key: (A)=31-95%; (B)=0-30%)
c1csc(-c2ccc(CNC34CC5CC(CC(C5)C3)C4)cn2)c1 [Example 58a, N-((6-(thiophen-2-yl)pyridin-3-yl)methyl)adamantan-1-amine] | A (key: (A)=31-95%; (B)=0-30%)
c1cncc(-c2noc(CNC34CC5CC(CC(C5)C3)C4)n2)c1 [Example 135a, Adamantan-1-yl-(3-pyridin-3-yl-[1,2,4]oxadiazol-5-ylmethyl)-amine] | A (key: (A)=31-95%; (B)=0-30%)
Fc1ccc(-c2nc(CNC34CC5CC(CC(C5)C3)C4)no2)cc1 [Example 163a] | A (key: (A)=31-95%; (B)=0-30%)
Oc1cc(-c2ccoc2)ccc1CNC12CC3CC(CC(C3)C1)C2 [Example 46a] | A (key: (A)=31-95%; (B)=0-30%)
c1nc(CNC23CC4CC(CC(C4)C2)C3)no1 [Example 73a, Adamantan-1-yl-[1,2,4]oxadiazol-3-ylmethyl-amine] | A (key: (A)=31-95%; (B)=0-30%)
Cc1ccc(CNC23CC4CC(CC(C4)C2)C3)o1 [Example 67a] | A (key: (A)=31-95%; (B)=0-30%)
c1cc(-c2ccc(CNC34CC5CC(CC(C5)C3)C4)cn2)cs1 [Example 59a, N-((6-(thiophen-3-yl)pyridin-3-yl)methyl)adamantan-1-amine] | A (key: (A)=31-95%; (B)=0-30%)
CC(C)n1cc(CNC23CC4CC(CC(C4)C2)C3)cn1 [Example 85a, N-((1-isopropyl-1H-pyrazol-4-yl)methyl)adamantan-1-amine] | B (key: (A)=31-95%; (B)=0-30%)
CC(C)(C)c1nc(CNC23CC4CC(CC(C4)C2)C3)no1 [Example 103a, N-((5-(tert-butyl)-1,2,4-oxadiazol-3-yl)methyl)adamantan-1-amine] | A (key: (A)=31-95%; (B)=0-30%)
OC12CC3CC(C1)CC(NCc1ccc(Cl)s1)(C3)C2 [Example 189a, 3-[(5-Chloro-thiophen-2-ylmethyl)-amino]adamantan-1-ol] | B (key: (A)=31-95%; (B)=0-30%)
c1cc(-c2cc(CNC34CC5CC(CC(C5)C3)C4)no2)cs1 [Example 150a, Adamantan-1-yl-(5-thiophen-3-yl-isoxazol-3-ylmethyl)-amine] | A (key: (A)=31-95%; (B)=0-30%)
c1c(CNC23CC4CC(CC(C4)C2)C3)noc1C1CC1 [Example 107a, N-((5-cyclopropylisoxazol-3-yl)methyl)adamantan-1-amine] | A (key: (A)=31-95%; (B)=0-30%)
Cc1cc(CNC23CC4CC(CC(C4)C2)C3)no1 [Example 95a, N-((5-methylisoxazol-3-yl)methyl)adamantan-1-amine] | A (key: (A)=31-95%; (B)=0-30%)

Same assay, conditions: pH 5.5

Structure (SMILES) | S31N OOcyte Inhibition at 100 uM (%)
Cc1nc(CNC23CC4CC(CC(C4)C2)C3)cs1 [Example 12b, N-((2-methylthiazol-4-yl)methyl)adamantan-1-amine] | A (key: (A)=31-95%; (B)=0-30%)
COc1ccc2nc(CNC34CC5CC(CC(C5)C3)C4)[nH]c2c1 [Example 79b, Adamantan-1-yl-(6-methoxy-1H-benzoimidazol-2-ylmethyl)-amine] | A (key: (A)=31-95%; (B)=0-30%)
Oc1cc(-c2ccsc2)ccc1CNC12CC3CC(CC(C3)C1)C2 [Example 8b] | A (key: (A)=31-95%; (B)=0-30%)
CCOC(=O)CN(C)c1ncc(CNC23CC4CC(CC(C4)C2)C3)cn1 [Example 60b, N-((2-methyl(ethylcarboxymethyl)aminopyrimidin-5-yl)methyl)adamantan-1-amine] | A (key: (A)=31-95%; (B)=0-30%)
Clc1ccccc1-c1cc(CNC23CC4CC(CC(C4)C2)C3)no1 [Example 45b, N-((5-(2-chlorophenyl)isoxazol-3-yl)methyl)adamantan-1-amine] | A (key: (A)=31-95%; (B)=0-30%)
CCOc1ccc(-c2ccc(CNC34CC5CC(CC(C5)C3)C4)s2)cc1 [Example 49b, N-((5-(4-Ethoxyphenyl)thiophen-2-yl)methyl)adamantan-1-amine] | A (key: (A)=31-95%; (B)=0-30%)
CC(NC12CC3CC(CC(C3)C1)C2)c1ccc(C(C)(C)C)cc1 (stereo not shown) [Example 3b, N-(1-(4-(tert-butyl)phenyl)ethyl)adamantan-1-amine] | B (key: (A)=31-95%; (B)=0-30%)
c1cnc2[nH]c(CNC34CC5CC(CC(C5)C3)C4)nc2c1 [Example 82b, N-((3H-imidazo[4,5-b]pyridin-2-yl)methyl)adamantan-1-amine] | A (key: (A)=31-95%; (B)=0-30%)
Oc1cc(-c2ccco2)ccc1CNC12CC3CC(CC(C3)C1)C2 [Example 7b, 2-((-Adamantan-1-ylamino)methyl)-5-(furan-2-yl)phenol] | A (key: (A)=31-95%; (B)=0-30%)
Clc1ccccc1-c1nc(CNC23CC4CC(CC(C4)C2)C3)no1 [Example 31b, N-((5-(2-chlorophenyl)-1,2,4-oxadiazol-3-yl)methyl)adamantan-1-amine] | A (key: (A)=31-95%; (B)=0-30%)
OC12CC3CC(C1)CC(NCc1noc(-c4ccccc4)n1)(C3)C2 [Example 84b, (1s,3r,5R,7S)-3-(((5-phenyl-1,2,4-oxadiazol-3-yl)methyl)amino)adamantan-1-61] | A (key: (A)=31-95%; (B)=0-30%)
Oc1cc(F)ccc1CNC12CC3CC(CC(C3)C1)C2 [Example 6b] | A (key: (A)=31-95%; (B)=0-30%)
CCCSc1ncc(CNC23CC4CC(CC(C4)C2)C3)cn1 [Example 62b, N-((2-propylthiopyrimidin-5-yl)methyl)adamantan-1-amine] | A (key: (A)=31-95%; (B)=0-30%)
C(#Cc1cccs1)CNC12CC3CC(CC(C3)C1)C2 [Example 88b] | A (key: (A)=31-95%; (B)=0-30%)
CCCc1nc(CNC23CC4CC(CC(C4)C2)C3)no1 [Example 29b, N-((5-propyl-1,2,4-oxadiazol-3-yl)methyl)adamantan-1-amine] | A (key: (A)=31-95%; (B)=0-30%)
c1c(CNC23CC4CC(CC(C4)C2)C3)noc1C1CCCCC1 [Example 32b, N-((5-cyclohexylisoxazol-3-yl)methyl)adamantan-1-amine] | A (key: (A)=31-95%; (B)=0-30%)
c1sc(CNC23CC4CC(CC(C4)C2)C3)cc1C1CC1 [Example 48b, N-((4-Cyclopropylthiophen-2-yl)methyl)adamantan-1-amine] | A (key: (A)=31-95%; (B)=0-30%)
c1nc(N2CCCCC2)ncc1CNC12CC3CC(CC(C3)C1)C2 [Example 58b, N-((2-(piperidin-1-yl)pyrimidin-5-yl)methyl)adamantan-1-amine] | A (key: (A)=31-95%; (B)=0-30%)
CCSc1ncc(CNC23CC4CC(CC(C4)C2)C3)cn1 [Example 56b, N-((2-(ethylthio)pyrimidin-5-yl)methyl)adamantan-1-amine] | A (key: (A)=31-95%; (B)=0-30%)
c1csc(-c2nc(CNC34CC5CC(CC(C5)C3)C4)cs2)c1 [Example 11b, N-((2-(thiophen-2-yl)thiazol-4-yl)methyl)adamantan-1-amine] | A (key: (A)=31-95%; (B)=0-30%)
c1nc(N2CCOCC2)ncc1CNC12CC3CC(CC(C3)C1)C2 [Example 57b, N-((2-morpholinopyrimidin-5-yl)methyl)adamantan-1-amine] | A (key: (A)=31-95%; (B)=0-30%)
